Assay results reported in publication PMC12621043, “Un-LOK-ing a New Approach for Conformational Selective Targeting of STK10 (LOK)” (ACS Medicinal Chemistry Letters, 2025).
“And” between values parts separate entries of the source, which are not always exact repeats. Equal values may be shown once. Read-outs that look alike come from different tables or passages of the source.

Columns and labels:
TOPKA = biological target: T1, TOPKA (Homo sapiens, UniProt Q96KB5); experiment: DSF Tm panel; type: binding; conditions: 10 μM compound
T1 construct: purchased in-house DSF kinase panel (SGC-style construct names; the trailing letter is the construct ID)
T1 sequence (Q96KB5 1-322): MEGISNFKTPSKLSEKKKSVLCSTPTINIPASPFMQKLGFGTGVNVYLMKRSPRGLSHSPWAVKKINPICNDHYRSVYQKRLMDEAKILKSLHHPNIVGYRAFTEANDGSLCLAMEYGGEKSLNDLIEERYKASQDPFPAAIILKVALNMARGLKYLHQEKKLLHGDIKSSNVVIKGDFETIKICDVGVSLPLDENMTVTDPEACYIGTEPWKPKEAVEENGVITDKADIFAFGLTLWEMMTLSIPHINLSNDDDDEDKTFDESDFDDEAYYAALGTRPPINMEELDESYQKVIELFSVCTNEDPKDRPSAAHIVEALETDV

STK10 [1] = biological target: T2, STK10 (Homo sapiens, UniProt O94804); experiment: Surface plasmon resonance (SPR); type: binding; conditions: 1:1 Langmuir kinetic model, 25 °C
T2 construct: purchased in-house DSF kinase panel (SGC-style construct names; the trailing letter is the construct ID)
T2 sequence (O94804 18-317 limits assumed): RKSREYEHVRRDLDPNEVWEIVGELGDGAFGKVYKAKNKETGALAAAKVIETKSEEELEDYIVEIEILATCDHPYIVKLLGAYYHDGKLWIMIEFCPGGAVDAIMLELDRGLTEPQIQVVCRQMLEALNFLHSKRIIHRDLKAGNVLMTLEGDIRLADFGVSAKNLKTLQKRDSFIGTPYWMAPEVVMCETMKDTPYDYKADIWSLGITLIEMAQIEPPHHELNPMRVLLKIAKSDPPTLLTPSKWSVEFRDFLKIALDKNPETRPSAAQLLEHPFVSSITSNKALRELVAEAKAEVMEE
Protocol: each well using a multichannel pipette (Eppendorf). Plates were incubated at 37 °C for 1 hour.
For substrate addition, 5 μL of 8 μM AQT0505 peptide was added to each well using the Mantis […]
temperature for an additional hour.
Fluorescence of the SOX-peptide was measured after excitation at 360 nm and emission at 487 nm using a PHERAstar plate reader (BMG Labtech). IC50 values were calculated by nonlinear regression of log[inhibitor] versus normalized response using GraphPad Prism 8 (www.graphpad.com, RRID:SCR_002798).
SPR. Surface plasmon resonance (SPR) experiments were conducted using a Biacore T200 instrument equipped with a Series S Sensor Chip NTA (Cytiva) at 25 °C. His-STK10 was immobilized at a flow rate of 10 µL/min on flow channels (FC) 2 while FC1 served as a blank reference without protein. Nickel loading of the chip was achieved by injecting 500 µM NiCl₂.
To activate the chip surface for covalent coupling, 483 mM EDC and 10 mM NHS were mixed in a 1:1 (v/v) ratio and injected. […]
Compound 23 was measured in duplicates using Multi-Cycle Kinetics, with 10 concentrations ranging from 0.01 µM to 5 μM injected across FC1 and FC2 at 30 µL/min for 150 s. Interaction data was FC1-referenced, blank-subtracted, solvent-corrected, and analyzed using Biacore T200 Evaluation Software version 3.2.1. […]

SLK [2] = biological target: SLK (Homo sapiens, UniProt Q9H2G2); experiment: Surface plasmon resonance (SPR); type: binding; conditions: kinetic fit, Figure S3
EPHB1A = biological target: T3, EPHB1A (Homo sapiens, UniProt P54762); experiment: DSF Tm panel; type: binding; conditions: 10 μM compound
T3 construct: purchased in-house DSF kinase panel (SGC-style construct names; the trailing letter is the construct ID)
T3 sequence (P54762 602-896): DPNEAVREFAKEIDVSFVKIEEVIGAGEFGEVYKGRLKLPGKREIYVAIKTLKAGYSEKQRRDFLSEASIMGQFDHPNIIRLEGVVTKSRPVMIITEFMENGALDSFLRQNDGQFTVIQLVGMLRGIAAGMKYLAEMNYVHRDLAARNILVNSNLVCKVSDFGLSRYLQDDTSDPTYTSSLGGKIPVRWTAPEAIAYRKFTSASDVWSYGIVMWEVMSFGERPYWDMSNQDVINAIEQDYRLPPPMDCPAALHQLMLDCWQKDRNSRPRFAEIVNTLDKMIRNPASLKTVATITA

HIPK2HSF = biological target: T4, HIPK2HSF (Homo sapiens, UniProt Q9H2X6); experiment: DSF Tm panel; type: binding; conditions: 10 μM compound
T4 construct: purchased in-house DSF kinase panel (SGC-style construct names; the trailing letter is the construct ID)
T4 sequence (Q9H2X6 199-527): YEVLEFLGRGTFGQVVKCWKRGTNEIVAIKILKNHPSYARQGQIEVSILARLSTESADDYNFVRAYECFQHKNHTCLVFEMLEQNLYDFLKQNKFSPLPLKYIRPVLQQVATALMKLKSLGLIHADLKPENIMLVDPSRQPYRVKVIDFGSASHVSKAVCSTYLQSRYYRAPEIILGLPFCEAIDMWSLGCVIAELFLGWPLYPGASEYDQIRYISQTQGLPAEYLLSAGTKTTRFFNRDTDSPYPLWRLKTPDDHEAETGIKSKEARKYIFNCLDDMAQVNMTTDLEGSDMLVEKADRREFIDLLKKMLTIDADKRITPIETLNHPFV

FECHHSB = biological target: T5, FECHHSB (Homo sapiens, UniProt P22830); experiment: DSF Tm panel; type: binding; conditions: 10 μM compound
T5 construct: purchased in-house DSF kinase panel (SGC-style construct names; the trailing letter is the construct ID)
T5 sequence (P22830 55-423): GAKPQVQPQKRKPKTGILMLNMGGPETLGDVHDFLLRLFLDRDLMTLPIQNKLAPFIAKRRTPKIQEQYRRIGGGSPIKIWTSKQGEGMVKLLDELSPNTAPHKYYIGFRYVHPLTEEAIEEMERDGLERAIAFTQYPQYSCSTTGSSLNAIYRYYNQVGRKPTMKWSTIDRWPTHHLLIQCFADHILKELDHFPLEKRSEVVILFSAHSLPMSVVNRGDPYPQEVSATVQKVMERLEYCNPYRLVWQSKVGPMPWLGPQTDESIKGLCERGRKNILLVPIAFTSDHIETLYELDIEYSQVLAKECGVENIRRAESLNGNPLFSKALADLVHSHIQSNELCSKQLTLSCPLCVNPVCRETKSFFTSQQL

STK10 [3] = biological target: T2, STK10; conditions: Figure 1, previous published dual STK10/SLK inhibitors, ref Serafim et al.; read-out: STK10 in vitro IC50; cited from earlier work
SLK [4] = system: SLK; set-up: method as in Serafim et al.; conditions: Figure 1, previous published dual STK10/SLK inhibitors, ref Serafim et al.; read-out: SLK cellular IC50; cited from earlier work
STK10 [5] = biological target: T2, STK10; conditions: Figure 1, previous published dual STK10/SLK inhibitors, ref Serafim et al.; read-out: STK10 cellular IC50; cited from earlier work

SMILES | ΔTm at 10 µM (TOPKA) [°C] | ΔTm at 10 µM (EPHB1A) [°C] | ΔTm at 10 µM (HIPK2HSF) [°C] | also measured
O=C(NCc1ccccc1Cl)Nc1ccc2cc1OCCOCCNc1ccn3ncc-2c3n1 [compound 17] | 0.4 |  |  | 
O=C(NCc1ccc(Cl)cc1Cl)Nc1ccc2cc1OCCOCCNc1ccn3ncc-2c3n1 [compound 20] | 1.2 |  |  | 
O=C(NCc1ccc(Cl)cc1F)Nc1ccc2cc1OCCOCCNc1ccn3ncc-2c3n1 [compound 21] | 0.6 |  |  | 
Cc1cc(Cl)ccc1CNC(=O)Nc1ccc2cc1OCCOCCNc1ccn3ncc-2c3n1 [compound 23] | 1.5 |  |  | Kd (STK10 [1]): 365 ± 45 nM; Kd (SLK [2]): 985 ± 855 nM; Kd SLK (SPR) (SLK [2]): mainly nonspecific binding
Cc1cc(Br)ccc1CNC(=O)Nc1ccc2cc1OCCOCCNc1ccn3ncc-2c3n1 [compound 24] |  | 0.2 | 0.2 | 
O=C(NCc1ccc(Cl)cc1)Nc1ccc2cc1OCCOCCNc1ccn3ncc-2c3n1 [compound 19] | 0.2 |  |  | 
O=C(NCc1ccccc1C(F)(F)F)Nc1ccc2cc1OCCOCCNc1ccn3ncc-2c3n1 [compound 27] |  | 0.3 | 0.2 | 
O=C(NCc1cccc(Cl)c1)Nc1ccc2cc1OCCOCCNc1ccn3ncc-2c3n1 [compound 18] | 0.5 |  |  | 
Cc1ccc(F)cc1CNC(=O)Nc1ccc2cc1OCCOCCNc1ccn3ncc-2c3n1 [compound 26] |  | 0.3 | 0.4 | 
O=C(NCc1ccccc1)Nc1ccc2cc1OCCOCCNc1ccn3ncc-2c3n1 [compound 16] | 0.4 |  |  | 

Further lines, with some results ahead:

ΔTm at 10 µM (TOPKA) [°C] | ΔTm at 10 µM (EPHB1A) [°C] | ΔTm at 10 µM (HIPK2HSF) [°C] | SMILES | also measured
-0.4 |  |  | CN1CCN(C(=O)Nc2ccc3cc2OCCOCCNc2ccn4ncc-3c4n2)CC1 [compound 35] | 
 | 0.5 | 0.5 | COc1cc(CNC(=O)Nc2ccc3cc2OCCOCCNc2ccn4ncc-3c4n2)ccc1F [compound 33] | 
 | 0.3 | 0.5 | COc1ccc(CNC(=O)Nc2ccc3cc2OCCOCCNc2ccn4ncc-3c4n2)cc1F [compound 32] | 
 | 0.1 | 0.5 | COc1ccccc1CNC(=O)Nc1ccc2cc1OCCOCCNc1ccn3ncc-2c3n1 [compound 29] | ΔTm at 10 µM (FECHHSB): -3.1 °C
 | 0.4 | 0.5 | COc1ccc(CNC(=O)Nc2ccc3cc2OCCOCCNc2ccn4ncc-3c4n2)cc1 [compound 31] | IC50 (STK10 [3]): 12 nM; IC50 (SLK [4]): 700 nM; IC50 (STK10 [5]): > 1000 nM and 1400 nM
 | 0.5 | 0.6 | O=C(NCc1ccc(C(F)(F)F)cc1)Nc1ccc2cc1OCCOCCNc1ccn3ncc-2c3n1 [compound 28] | 
 | 0.1 | 0.4 | C[C@H](NC(=O)Nc1ccc2cc1OCCOCCNc1ccn3ncc-2c3n1)c1ccccc1 [compound 34] | 
 | 0.2 | 0.4 | COc1cccc(CNC(=O)Nc2ccc3cc2OCCOCCNc2ccn4ncc-3c4n2)c1 [compound 30] | ΔTm at 10 µM (FECHHSB): -3.8 °C
